These results are taken from patent publication US10030020B2, “Spirocycle compounds and methods of making and using same” (Abide Therapeutics, Inc., priority 2016, dated 2018).

A word on the IC50: it is the concentration that inhibits the measured activity by half. A high value points to weaker potency in that assay.

Read-outs that look alike come from different tables or passages of the source.

What all share (format): biochemical
For experiment [1], the target named is MAGL (Mus musculus (Mouse), UniProt O35678). Kind of experiment: In vitro competitive activity-based protein profiling (mouse brain membrane fraction or cell lysates), MAGL band. The settings on record: mouse proteome; for inhibition at 1 µM: read-out: MAGL % Inh 1 μM (mouse); for IC50: competitive ABPP. As for the experimental part:
(§1) In Vitro Competitive Activity-Based Protein Profiling.
Proteomes (mouse brain membrane fraction or cell lysates) (50 μL, 1.0 mg/mL total protein concentration) were preincubated with varying concentrations of inhibitors at 37° C. After 30 min, FP—Rh (1.0 μL, 50 μM in DMSO) was added and the mixture was incubated for another 30 min at 37° C. Reactions were quenched with SDS loading buffer (50 μL-4×) and run on SDS-PAGE.

Experiment [2] addresses ABHD6 (Mus musculus (Mouse), UniProt Q8R2Y0). Put plainly: In vitro competitive activity-based protein profiling (mouse brain membrane fraction or cell lysates), ABHD6 band. The following applies: for inhibition at 1 µM: read-out: ABHD6 % Inh 1 μM (mouse); for IC50: competitive ABPP. As for the experimental part: as §1
(§2) Proteomes (mouse brain membrane fraction or cell lysates) (50 μL, 1.0 mg/mL total protein concentration) were preincubated with varying concentrations of inhibitors at 37° C. After 30 min, FP—Rh (1.0 μL, 50 μM in DMSO) was added and the mixture was incubated for another 30 min at 37° C. Reactions were quenched with SDS loading buffer (50 μL-4×) and run on SDS-PAGE. Following gel imaging, serine hydrolase activity was determined by measuring fluorescent intensity of gel bands corresponding to MAGL, ABHD6 and FAAH using ImageJ 1.43u software.

Experiment [3] concerns the target FAAH (Mus musculus (Mouse), UniProt O08914). Kind of experiment: In vitro competitive activity-based protein profiling (mouse brain membrane fraction or cell lysates), FAAH band. The following applies: for inhibition at 1 µM: read-out: FAAH % Inh 1 μM (mouse); for IC50: competitive ABPP. As for the experimental part: as §1, §2

Chain of FAAH (O08914 whole entry): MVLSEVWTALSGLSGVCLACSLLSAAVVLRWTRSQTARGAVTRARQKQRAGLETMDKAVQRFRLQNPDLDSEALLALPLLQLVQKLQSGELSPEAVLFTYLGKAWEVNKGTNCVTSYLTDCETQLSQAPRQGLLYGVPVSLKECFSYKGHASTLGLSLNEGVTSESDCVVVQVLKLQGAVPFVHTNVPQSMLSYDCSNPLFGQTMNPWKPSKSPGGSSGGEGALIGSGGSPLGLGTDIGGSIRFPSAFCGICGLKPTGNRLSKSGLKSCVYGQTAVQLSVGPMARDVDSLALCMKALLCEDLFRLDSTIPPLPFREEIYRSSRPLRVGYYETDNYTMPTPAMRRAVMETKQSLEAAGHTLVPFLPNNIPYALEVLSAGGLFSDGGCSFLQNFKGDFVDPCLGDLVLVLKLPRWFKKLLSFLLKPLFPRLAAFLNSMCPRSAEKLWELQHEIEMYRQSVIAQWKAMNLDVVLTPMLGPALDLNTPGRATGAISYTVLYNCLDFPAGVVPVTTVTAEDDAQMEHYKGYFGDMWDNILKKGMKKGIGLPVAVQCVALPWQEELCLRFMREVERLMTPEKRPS
Chain of ABHD6 (Q8R2Y0 whole entry): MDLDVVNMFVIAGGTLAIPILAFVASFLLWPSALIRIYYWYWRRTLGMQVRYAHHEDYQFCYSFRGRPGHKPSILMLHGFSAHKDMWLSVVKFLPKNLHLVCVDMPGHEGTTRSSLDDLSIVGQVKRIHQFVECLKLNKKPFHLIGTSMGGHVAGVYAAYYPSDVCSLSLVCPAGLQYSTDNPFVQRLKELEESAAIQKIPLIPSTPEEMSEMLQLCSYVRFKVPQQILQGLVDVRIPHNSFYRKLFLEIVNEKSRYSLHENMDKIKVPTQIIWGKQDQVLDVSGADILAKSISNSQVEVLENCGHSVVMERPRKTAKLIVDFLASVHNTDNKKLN
Chain of MAGL (O35678 whole entry): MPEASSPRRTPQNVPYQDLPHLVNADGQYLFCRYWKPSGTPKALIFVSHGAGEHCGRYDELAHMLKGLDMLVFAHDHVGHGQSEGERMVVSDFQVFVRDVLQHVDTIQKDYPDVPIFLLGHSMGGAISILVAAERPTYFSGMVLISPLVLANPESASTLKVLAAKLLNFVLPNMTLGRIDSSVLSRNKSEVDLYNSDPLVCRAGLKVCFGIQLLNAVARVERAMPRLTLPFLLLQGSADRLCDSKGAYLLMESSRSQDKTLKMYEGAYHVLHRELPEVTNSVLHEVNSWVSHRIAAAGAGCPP

Take `COc1ccc(CN2CCCC23CCN(C(=O)OC(C(F)(F)F)C(F)(F)F)CC3)cc1` [Example 1, 1,1,1,3,3,3-Hexafluoropropan-2-yl 1-(4-methoxybenzyl)-1,8-diazaspiro[4.5]decane-8-carboxylate]: the inhibition at 1 µM in experiment [1] is greater than 75%; in experiment [2] (mouse proteome) it was less than 25%; in experiment [3] (mouse proteome), less than 25%. For the same compound, the IC50 in experiment [2] (mouse proteome) and in experiment [3] (mouse proteome) was greater than 1000 nM each time.

Turning to `COc1cccc(CN2CCCC23CCN(C(=O)OC(C(F)(F)F)C(F)(F)F)CC3)c1` [Example 2, 1,1,1,3,3,3-Hexafluoropropan-2-yl 1-(3-methoxybenzyl)-1,8-diazaspiro[4.5]decane-8-carboxylate], the inhibition at 1 µM was greater than 75% in experiment [1], less than 25% in experiment [2] (mouse proteome) and less than 25% in experiment [3] (mouse proteome). For the same compound, the results for the IC50 in experiment [1], in experiment [2] (mouse proteome) and in experiment [3] (mouse proteome) were 100 to 1000 nM, greater than 1000 nM and greater than 1000 nM, respectively.

For `COc1ccccc1CN1CCCC12CCN(C(=O)OC(C(F)(F)F)C(F)(F)F)CC2` [Example 3, 1,1,1,3,3,3-Hexafluoropropan-2-yl 1-(2-methoxybenzyl)-1,8-diazaspiro[4.5]decane-8-carboxylate], the values for the inhibition at 1 µM in experiment [1], in experiment [2] (mouse proteome) and in experiment [3] (mouse proteome) were greater than 75%, less than 25% and less than 25%, respectively. Besides, the IC50 in experiment [1] was 100 to 1000 nM; in experiment [2] (mouse proteome), greater than 1000 nM; in experiment [3] (mouse proteome), greater than 1000 nM.

On to `CCOc1ccccc1CN1CCCC12CCN(C(=O)OC(C(F)(F)F)C(F)(F)F)CC2` [Example 6, 1,1,1,3,3,3-Hexafluoropropan-2-yl 1-(2-ethoxybenzyl)-1,8-diazaspiro[4.5]decane-8-carboxylate], for which the IC50 in experiment [1] was 100 to 1000 nM; in experiment [2] (mouse proteome) it was greater than 1000 nM; in experiment [3] (mouse proteome) it was greater than 1000 nM.

`O=C(OC(C(F)(F)F)C(F)(F)F)N1CCC2(CCCN2Cc2cccc(OCCN3CCCCC3)c2)CC1` [Example 11, 1,1,1,3,3,3-Hexafluoropropan-2-yl 1-(3-(2-(piperidin-1-yl)ethoxy)benzyl)-1,8-diazaspiro[4.5]decane-8-carboxylate]: the values for the inhibition at 1 µM in experiment [1], in experiment [2] (mouse proteome) and in experiment [3] (mouse proteome) were greater than 75%, less than 25% and less than 25%, respectively. Besides, the IC50 in experiment [1] is 100 to 1000 nM; in experiment [2] (mouse proteome) it was greater than 1000 nM; in experiment [3] (mouse proteome) it was greater than 1000 nM.

In the case of `O=C(OC(C(F)(F)F)C(F)(F)F)N1CCC2(CCCN2Cc2cccc(OCCN3CCCC3)c2)CC1` [Example 12, 1,1,1,3,3,3-Hexafluoropropan-2-yl 1-(3-(2-(pyrrolidin-1-yl)ethoxy)benzyl)-1,8-diazaspiro[4.5]decane-8-carboxylate], the inhibition at 1 µM in experiment [1] is greater than 75%; in experiment [2] (mouse proteome) it was less than 25%; in experiment [3] (mouse proteome), less than 25%. In addition, the half-maximal inhibitory concentration (IC50) in experiment [1] was 100 to 1000 nM; in experiment [2] (mouse proteome) it was greater than 1000 nM; in experiment [3] (mouse proteome), greater than 1000 nM.

In the case of `O=C(OC(C(F)(F)F)C(F)(F)F)N1CCC2(CCCN2Cc2cccc(OCCN3CCOCC3)c2)CC1` [Example 13, 1,1,1,3,3,3-Hexafluoropropan-2-yl 1-(3-(2-morpholinoethoxy)benzyl)-1,8-diazaspiro[4.5]decane-8-carboxylate], the results for the inhibition at 1 µM in experiment [1], in experiment [2] (mouse proteome) and in experiment [3] (mouse proteome) were greater than 75%, less than 25% and less than 25%, respectively. The figures for the IC50 in experiment [1], in experiment [2] (mouse proteome) and in experiment [3] (mouse proteome) were 100 to 1000 nM, greater than 1000 nM and greater than 1000 nM, respectively.

Turning to `O=C(OC(C(F)(F)F)C(F)(F)F)N1CCC2(CCCN2Cc2ccc(OCCN3CCOCC3)cc2)CC1` [Example 14, 1,1,1,3,3,3-Hexafluoropropan-2-yl 1-(4-(2-morpholinoethoxy)benzyl)-1,8-diazaspiro[4.5]decane-8-carboxylate], the inhibition at 1 µM in experiment [1] is greater than 75%; in experiment [2] (mouse proteome), less than 25%; in experiment [3] (mouse proteome), less than 25%.

`O=C(OC(C(F)(F)F)C(F)(F)F)N1CCC2(CCCN2Cc2ccc(OCCN3CCCCC3)c(Cl)c2)CC1` [Example 15, 1,1,1,3,3,3-Hexafluoropropan-2-yl 1-(3-chloro-4-(2-(piperidin-1-yl)ethoxy)benzyl)-1,8-diazaspiro[4.5]decane-8-carboxylate]: the inhibition at 1 µM in experiment [1] is greater than 75%; in experiment [2] (mouse proteome) it was less than 25%; in experiment [3] (mouse proteome) it was less than 25%. Moreover, the IC50 in experiment [1] is 100 to 1000 nM; in experiment [2] (mouse proteome) it was greater than 1000 nM; in experiment [3] (mouse proteome) it was greater than 1000 nM.

As for `O=C(OC(C(F)(F)F)C(F)(F)F)N1CCC2(CCCN2Cc2cc(Cl)cc(N3CC4COCC4C3)c2)CC1` (stereo not drawn) [Example 38, 1,1,1,3,3,3-Hexafluoropropan-2-yl 1-(3-chloro-5-(tetrahydro-1H-furo[3,4-c]pyrrol-5(3H)-yl)benzyl)-1,8-diazaspiro[4.5]decane-8-carboxylate], the inhibition at 1 µM in experiment [1] is greater than 75%; in experiment [2] (mouse proteome) it was less than 25%; in experiment [3] (mouse proteome) it was 25 to 75%. For the same compound, the IC50 in experiment [1] is less than 100 nM; in experiment [2] (mouse proteome), greater than 1000 nM; in experiment [3] (mouse proteome) it was greater than 1000 nM.

Turning to `O=C(OC(C(F)(F)F)C(F)(F)F)N1CCC2(CCCN2Cc2cc(Cl)cc(N3CCC(F)CC3)c2)CC1` [Example 39, 1,1,1,3,3,3-Hexafluoropropan-2-yl 1-(3-chloro-5-(4-fluoropiperidin-1-yl)benzyl)-1,8-diazaspiro[4.5]decane-8-carboxylate], the inhibition at 1 µM in experiment [1] was greater than 75%; in experiment [2] (mouse proteome), less than 25%; in experiment [3] (mouse proteome), less than 25%. Further, the IC50 in experiment [1] is less than 100 nM; in experiment [2] (mouse proteome), greater than 1000 nM; in experiment [3] (mouse proteome), greater than 1000 nM.

As for `CS(=O)(=O)N1CCN(c2cc(Cl)cc(CN3CCCC34CCN(C(=O)OC(C(F)(F)F)C(F)(F)F)CC4)c2)CC1` [Example 40, 1,1,1,3,3,3-Hexafluoropropan-2-yl 1-(3-chloro-5-(4-(methylsulfonyl)piperazin-1-yl)benzyl)-1,8-diazaspiro[4.5]decane-8-carboxylate], the inhibition at 1 µM in experiment [1] was greater than 75%; in experiment [2] (mouse proteome) it was less than 25%; in experiment [3] (mouse proteome) it was less than 25%. The figures for the IC50 in experiment [1], in experiment [2] (mouse proteome) and in experiment [3] (mouse proteome) were less than 100 nM, greater than 1000 nM and greater than 1000 nM, respectively.

Regarding `O=C(OC(C(F)(F)F)C(F)(F)F)N1CCC2(CCCN2Cc2cc(N3CCC(C(F)(F)F)CC3)cc(C(F)(F)F)c2)CC1` [Example 44, 1,1,1,3,3,3-Hexafluoropropan-2-yl 1-(3-(trifluoromethyl)-5-(4-(trifluoromethyl)piperidin-1-yl)benzyl)-1,8-diazaspiro[4.5]decane-8-carboxylate], the IC50 in experiment [2] (mouse proteome) and in experiment [3] (mouse proteome) was greater than 1000 nM each time.

For `O=C(O)C1CCN(c2cc(Cl)ccc2CN2CCC3(CCN(C(=O)OC(C(F)(F)F)C(F)(F)F)CC3)C2)CC1` [Example 118, 1-(5-chloro-2-((8-(((1,1,1,3,3,3-hexafluoropropan-2-yl)oxy)carbonyl)-2,8-diazaspiro[4.5]decan-2-yl)methyl)phenyl)piperidine-4-carboxylic acid], in experiment [2] (mouse proteome), the inhibition at 1 µM was less than 25% and the IC50 was greater than 1000 nM. In addition, in experiment [3] (mouse proteome), the inhibition at 1 µM is less than 25% and the IC50 was greater than 1000 nM.

As to `O=C(O)c1ccc(CN2CCCC23CCN(C(=O)OC(C(F)(F)F)C(F)(F)F)CC3)cc1C(F)(F)F` [Example 182, 4-((8-((1,1,1,3,3,3-Hexafluoropropan-2-yloxy)carbonyl)-1,8-diazaspiro[4.5]decan-1-yl)methyl)-2-(trifluoromethyl)benzoic acid], in experiment [2] (mouse proteome), the inhibition at 1 µM was less than 25% and the half-maximal inhibitory concentration (IC50) was greater than 1000 nM. Also, in experiment [3] (mouse proteome), the inhibition at 1 µM is less than 25% and the IC50 is greater than 1000 nM.

Turning to `O=C(O)C1CCN(c2cc(F)ccc2CN2CCC3(CCN(C(=O)OC(C(F)(F)F)C(F)(F)F)CC3)C2)CC1` [Example 237], the inhibition at 1 µM in experiment [2] (mouse) was 25 to 75%; in experiment [3] (mouse), less than 25%.

Consider `Cc1cc(CN2CCCC23CCN(C(=O)OC(C(F)(F)F)C(F)(F)F)CC3)cc(C(=O)O)c1` [Example 243], for which the inhibition at 1 µM in experiment [2] (mouse) and in experiment [3] (mouse) was less than 25% throughout.

Consider `O=C(O)C1CCN(Cc2cc(CN3CCC4(CCN(C(=O)OC(C(F)(F)F)C(F)(F)F)CC4)C3)ccc2Cl)CC1` [Example 246], for which the inhibition at 1 µM was 25 to 75% in experiment [2] (mouse) and less than 25% in experiment [3] (mouse).

`O=C(O)c1cc(CN2CCC3(CCN(C(=O)OC(C(F)(F)F)C(F)(F)F)CC3)C2)ccc1C(F)(F)F` [Example 255]: the inhibition at 1 µM in experiment [2] (mouse) is 25 to 75%; in experiment [3] (mouse) it was less than 25%.

On to `CC1(C(=O)O)CN(c2cc(C(F)(F)F)ccc2CN2CCCC23CCN(C(=O)OC(C(F)(F)F)C(F)(F)F)CC3)CCO1` (stereo not drawn) [Example 260], for which the inhibition at 1 µM in experiment [2] (mouse) and in experiment [3] (mouse) was less than 25% in each case.

On to `O=C(O)c1cc(CN2CCCC23CCN(C(=O)OC(C(F)(F)F)C(F)(F)F)CC3)ccc1Cl` [Example 266], for which the inhibition at 1 µM in experiment [2] (mouse) and in experiment [3] (mouse) was less than 25% in each case.
